# From the METLIN SMRT retention time set (Domingo-Almenara et al. 2019)
# Test: gradient 5% acetonitrile 3 min, to 50% in 2 min, to 85% in 15 min, held 3 min, 100 µL/min
# Conditions: column: Zorbax Extend-C18 2.1 x 50 mm; eluents: water / acetonitrile, 0.1% formic acid
# Outline: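 A Zorbax Extend-C18 column (2.1 × 50 mm, 1.8 μm) run at 100 μL/min with water and acetonitrile, both containing 0.1% formic acid, separated mixtures of ~100 pure standards. The HPLC was coupled to a quadrupole time-of-flight mass spectrometer operated in positive and negative ionization mode, with dead and dwell volumes of 40 μL and 900 μL. Each retention time was taken from a computationally picked adduct peak that was then manually inspected.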
row,Compound,RP-LC retention time
1,COc1ccc(C2Cn3nnc(-c4nc(-c5cccc(C(F)(F)F)c5)no4)c3CO2)cc1 (configuration not stated),1270 s
2,COc1ccc(Br)c(CC2C(=O)Nc3ccccc32)c1 (configuration not stated),944 s
3,O=C(NCCCN1CCCC1)C1CCN(Cc2cc3ccccc3n2Cc2ccccc2Cl)CC1,609 s
4,Cc1ccc(-c2ccc3nn(Cc4nc(-c5ccc(Br)cc5)no4)c(=O)n3n2)cc1,1100 s
5,Cc1ccccc1Cn1cc(-c2ccncc2)cc1C(=O)NCC1CCCO1 (configuration not stated),667 s
6,CC1CCN(S(=O)(=O)c2ccc(-c3nnc(C(=O)NC4CCCCC4)o3)cc2)CC1,1120 s
7,CS(=O)(=O)N1CCCN(C(=O)Nc2ccccc2)CCNC(=O)CC1c1ccccc1 (configuration not stated),698 s
8,O=S(=O)(c1cccnc1)N1CCC(c2nnc(-c3ccc(F)cc3)o2)CC1,734 s
9,Cc1cccc(CN2CCN(CC(=O)NCc3ccc4c(c3)OCO4)C(=O)C2=O)c1,723 s
10,COc1ccc(CC(=O)N2CCC(n3cnnc3C3CC3)CC2)cc1Cl,658 s
11,CCn1c(=O)c2cc(C(=O)Nc3ccc(C(F)(F)F)cc3)nn2c2ccccc21,1090 s
12,O=C(Cn1ccnc1-c1ccnc(N2CCCC2)c1)NCc1ccc(Cl)cc1,601 s
13,CCc1noc(NC(C)=O)c1-c1ccc(C)c(S(=O)(=O)Nc2ccc(Br)c(C)c2)c1,951 s
14,Cc1cccc(N2CCN(c3cc(C)nc4c(-c5ccccc5)cnn34)CC2)n1,738 s
15,Cc1csc(-c2ccc(N3CCN(C(=O)c4ccco4)CC3)nc2)n1,711 s
16,CC(C(=O)NCCN1CCCCCC1)n1c(=O)c(C(F)(F)F)nc2ccccc21 (configuration not stated),713 s
17,Cc1cccc(-n2c(Cc3cccn3C)nnc2SCC(=O)NCC2CCCO2)c1C (configuration not stated),776 s
18,CCn1nccc1C(=O)N1C[C@@H](CO)[C@H](NC(C)=O)C1,514 s
19,Cc1sc(NC(=O)CCc2ccccc2)nc1-c1ccc2c(c1)NC(=O)CO2,888 s
20,Cc1ccc(-c2cn3c(CC(=O)NCCc4ccc(Cl)cc4)csc3n2)cc1C,734 s
21,CCCn1cc(CCNC(=O)c2cc(C)ccc2C)c2cccnc21,827 s
22,Cc1cc(C)c(NC(=O)COc2cc(C(F)(F)F)c3c(C)nn(C)c3n2)c(C)c1,1060 s
23,Cc1noc([C@@H]2CN(C(=O)Cc3ccsc3)C[C@H]2C(N)=O)n1,618 s

row,Compound,RP-LC retention time
1,CCC(C)NC(=O)c1n[nH]c2c1CCCCCC2 (configuration not stated),850 s
2,COC(=O)c1ccc(NC(=O)c2c(OC)cc(=O)n3c2CCCC3)cc1,678 s
3,Cn1c(N2CCCC(C(=O)NCc3ccc4c(c3)OCO4)C2)cc(=O)n(C)c1=O (configuration not stated),671 s
4,COc1ccc(-c2ccnn2-c2ccc(SCc3cccc(C)c3)nn2)cc1,1400 s
5,CCc1cc(C(=O)N2CCN(c3ccccc3)CC2)nc2ccnn12,814 s
6,O=C(NCCc1csc(-c2cccs2)n1)C1CCN(C(=O)C2CCCC2)CC1,782 s
7,Cc1ccc(S(=O)(=O)N2CCCOC2CNC(=O)C(=O)NCc2cccs2)cc1 (configuration not stated),806 s
8,O=C1CC(c2ccccc2)N(S(=O)(=O)c2cccc3nsnc23)CCCCCCN1 (configuration not stated),886 s
9,O=C(CCc1nnn2c1CN(C(=O)NC1CCCCC1)CC2)N1CCOCC1,634 s
10,COc1ccc(C2C(C(=O)N3CCC(C)CC3)c3cc(OC)c(OC)cc3C(=O)N2C)cc1OC (configuration not stated),764 s
11,COc1ccc(C)cc1Nc1c(-c2nc(C)no2)cnc2nc(C)ccc12,764 s
12,O=C(N[C@H]1C[C@@H]2C[C@H]1N(C(=O)c1ccccc1Cl)C2)c1cccs1,643 s
13,COc1ccc(-n2c(=O)c(C(=O)NCc3ccco3)c(O)c3cccnc32)cc1,1050 s
14,COCCN1C(=O)c2cccn2CC1CNC(=O)c1cnc(C)cn1 (configuration not stated),610 s
15,Cn1cnc(S(=O)(=O)N2CCC(c3noc(-c4ccccn4)n3)C2)c1 (configuration not stated),622 s
16,COc1ccccc1C1(CNC(=O)C(=O)NCCC2=CCCCC2)CCOCC1,998 s
17,Cc1cccc(NC(=O)N2CCC(CC(=O)N3CCCCC3)CC2)c1C,751 s
18,COCC1CCN(C(=O)CCC2CCN(c3cc(NC4CC4)ncn3)CC2)CC1,636 s
19,Cc1ccccc1OCC(=O)Nc1nc(-c2ccccc2)cs1,1110 s
20,Cn1c(C(=O)NCCCN2CCCCCC2)cc2c(-c3cccs3)nn(-c3ccccc3)c21,795 s
21,CCc1ccccc1NC(=O)CN1C(=O)NC2(CCC(C)CC2)C1=O (configuration not stated),698 s
22,Cc1cc(-c2nnc(-c3ccc(F)cc3)o2)c(C)n1CC(=O)Nc1ccc2c(c1)OCO2,938 s
23,CCc1ccccc1NC(=O)Cn1nc2c(Oc3cc(C)cc(C)c3)nccn2c1=O,946 s

row,Compound,RP-LC retention time
1,O=C(NCCc1ccccc1)N1CCC(OC2CCN(Cc3ccccc3)CC2)CC1,652 s
2,COCCN1C(=O)CCc2cc(NS(=O)(=O)c3ccc(F)cc3)ccc21,759 s
3,CCC(C)NC(=O)C1CCN(C2=NS(=O)(=O)C(c3ccc(OC)cc3)=C2C)CC1 (configuration not stated),795 s
4,COc1ccc(N2CCN(CC(O)COc3c(C)cccc3C)CC2)cc1 (configuration not stated),698 s
5,CCCc1nc(N2CCN(c3ccccn3)CC2)ncc1C(=O)O,606 s
6,COC(=O)c1ccccc1NC(=O)Cc1csc(Nc2ccccn2)n1,703 s
7,Cc1ccc(-n2ncc3c(N4CCN(CCO)CC4)ncnc32)cc1Cl,651 s
8,CC1CN(C(=O)CSc2cn(CC(=O)N3CCCCCC3)c3ccccc23)CC(C)O1 (configuration not stated),897 s
9,CCc1nccn1Cc1noc(-c2cccc(OC)c2)n1,557 s
10,Cc1noc(C)c1CC(=O)N1CC[C@@H]2CN(S(C)(=O)=O)[C@@H]2C1,608 s
11,CC(C)C(=O)Nc1cn(-c2ccc(C(=O)Nc3ccc4c(c3)OCCO4)cc2)cn1,808 s
12,CCCc1nc2c(c(=O)n1CC(=O)NCc1cccs1)CCN(Cc1ccccc1)C2,641 s
13,O=C1NCCCCCN(C(=O)CC2CCCCC2)[C@@H]2C[C@@H](C(=O)N3CCc4ccccc4C3)C[C@H]12,933 s
14,O=C(Nc1ccc(Cl)cc1F)N1CCc2nc[nH]c2C1,584 s
15,CC(C)n1cnnc1CC1CCN(S(=O)(=O)Cc2ccccc2)C1 (configuration not stated),659 s
16,CCn1c(COc2cccc3cccnc23)nnc1SC(F)F,568 s
17,COc1ccc(N2CCN(c3nc(C(=O)N4CCN(C(C)C)CC4)cs3)CC2)cc1,627 s
18,CC(=O)N1CCCC1c1nc2ccccc2n1CC(=O)N1CCC(C)CC1 (configuration not stated),567 s
19,O=C(Cc1nnc2cc(-c3nc(C4CC4)no3)ccn12)NC1CCCCCC1,741 s
20,O=C(CN1C(=O)C2CCCN2C(=O)c2ccccc21)c1ccc(Br)cc1 (configuration not stated),823 s
21,COc1ccc(-c2nc3ncccn3c2Nc2cccc(C(F)(F)F)c2)cc1,903 s
